Several values for one entry are separate records, joined by “and”; a condition that tells them apart may be missing. Identical values can stand only once. Square brackets hold non-standard residues; d marks the D form. Peptide text beside a SMILES is read from it. Arg(Me) = CNC(=N)NCCC[C@H](N)C(=O)O; d4Pal = N[C@H](Cc1ccncc1)C(=O)O; azaGly = NNC(=O)O
How the values were obtained:
Type in all cases: functional, Homo sapiens
Parameters in all cases: dose or concentration left out as unconfirmed
[1] = tested on: Colon cancer organoid; assay: (§1) Image-based profiling of donated chemical probes and chemogenomic kinase set in O21 CRC organoid. Image analysis is performed on the sum area metric, and the data were normalized to the DMSO control. After imaging the organoid viability is measured using the OneGloEX Luciferase Assay System. The normalized viability data and sum area are reported.
[2] = tested on: Colon cancer organoid; assay: as §1, with “O09” for “O21”
[3] = tested on: Colon cancer organoid; assay: as §1, with “O06” for “O21”

| Structure (SMILES) | Cell Viability ([1]; Replication number 1) | Cell Viability ([1]; Replication number 2) | Cell Viability ([2]; Replication number 1) | Cell Viability ([2]; Replication number 2) | Cell Viability ([3]; Replication number 1) | Cell Viability ([3]; Replication number 2) |
| --- | --- | --- | --- | --- | --- | --- |
| N#CN1CC[C@@H](C(=O)Nc2nc3c(s2)CN(C(=O)CN=[N+]=[N-])CC3)C1 [JYQ88] | 106.224% and 86.2132% | 132.659% and 94.3236% | 58.2871% and 66.775% | 121.196% and 102.102% | 45.8886% and 74.332% | 68.3691% and 90.3412% |
| CCn1cc(-c2cccc(C(F)(F)F)c2)c2sc(C(=N)NC3CCS(=O)(=O)CC3)cc2c1=O | 121.201% and 130.503% | 111.866% and 107.936% | 136.882% and 100.386% | 86.2111% and 86.0944% | 179.562% and 135.302% | 139.17% and 96.3091% |
| CCNC(=O)c1cc2c(N3CCOC[C@@H]3C)ccnc2n1C | 124.621% and 105.951% | 105.072% and 92.3469% | 131.24% and 98.4338% | 151.747% and 108.945% | 97.9107% and 98.1265% | 90.7853% and 98.7859% |
| O=C(c1ccc(C(=O)N2CCC(N3CCCC3)CC2)c(Nc2ccccc2)c1)N1CCC(N2CCCC2)CC1 | 116.035% and 118.746% | 94.3605% and 99.3437% | 81.7706% and 92.0402% | 143.807% and 112.037% | 185.477% and 131.195% | 168.44% and 129.527% |
| COc1cccc2c1c(O)c(C(=O)N(C)c1ccc(C(F)(F)F)cc1)c(=O)n2C [TASQUINIMOD] | 88.1859% and 108.165% | 81.4636% and 102.566% | 111.782% and 95.2859% | 96.4426% and 87.5198% | 48.5879% and 75.1409% | 109.678% and 108.736% |
| CC(=O)C1=C(C)N(c2cccc(C(F)(F)F)c2)C(=O)N[C@@H]1c1ccc(C#N)nc1 [BAY-678] | 123.826% and 98.3829% | 102.879% and 115.306% | 154.648% and 117.069% | 95.0691% and 89.9598% | 116.42% and 104.215% | 86.788% and 60.6455% |
| CNC(=N)NCCC[C@H](NC(=O)[C@H](CC(C)C)NC(=O)NNC(=O)[C@H](Cc1ccccc1)NC(=O)[C@H](CO)NC(=O)[C@H](CC(N)=O)NC(=O)[C@@H](Cc1ccncc1)NC(=O)[C@H](N)Cc1ccc(O)cc1)C(=O)N[C@@H](Cc1ccccc1)C(N)=O [KISS1-305] (H-[dY][d4Pal]NSF[azaGly]L[Arg(Me)]F-NH2) | 121.353% and 98.3829% | 105.015% and 111.735% | 111.929% and 98.6727% | 102.809% and 106.608% | 103.915% and 128.337% | 108.799% and 104.471% |
| Cc1ccccc1Oc1cc(-n2c(=O)cc(C(F)(F)F)[nH]c2=O)c2ccccc2c1Cl [BAY-069] | 99.7794% and 121.135% | 101.27% and 93.8137% | 112.474% and 107.103% | 148.882% and 102.498% | 107.213% and 122.915% | 117.719% and 113.888% |
| O=C(N[C@H]1CCCCC/C=C\C2C[C@@]2(C(=O)O)NC(=O)[C@@H]2C[C@@H](Oc3ccncc3)CN2C1=O)OC1CCCC1 (stereo not given in full) [BI 1675] | 85.4317% and 92.5614% | 88.5187% and 94.3878% | 116.319% and 81.4707% | 190.904% and 132.895% | 69.4015% and 71.6628% | 66.5819% and 62.7776% |
| Cc1c(Nc2ccc(S(=O)(=O)N3CCN(C)CC3)cc2F)nc2ccc(Nc3cnn(C4CC4)c3)cn2c1=O | 116.907% and 92.8805% | 82.2867% and 96.1217% | 89.3145% and 89.49% | 245.21% and 122.015% | 183.611% and 128.295% | 165.181% and 157.488% |
